Drawing on patent US7781485B2, “Hsp90 family protein inhibitors” (Kyowa Hakko Kirin Co., Ltd., priority 2004, dated 2010), this text covers GI50 for twelve compounds.

A value given as a limit tells only on which side of the number the result lay.

This assay relates to human mammary cancer-derived KPL-4 cells. The assay can be described thus: Growth inhibition test on human mammary cancer-derived KPL-4 cells (WST-1). The class given is cell-based. The settings on record: KPL4, 72 hours culture, read-out: 50% growth inhibitory concentration (GI50). Here is the method: Two thousand cells of human mammary cancer-derived KPL-4 cells were inoculated into each well of a 96-well microplate (manufactured by Nunc Corp.), and using Dulbecco's Modified Eagle's Medium (DMEM) (culture medium) containing 10% fetal calf serum (FCS), preculturing was performed in a 5% carbon dioxide incubator at 37° C. for 24 hours. A dimethyl sulfoxide (DMSO) solution of each test compound prepared in a concentration of 10 mmol/L was diluted with the culture medium step-by-step to a final concentration of […], and the diluted solution was added to each well. The individual wells were further cultured in the 5% carbon dioxide incubator at 37° C. for 72 hours. After completion of the culturing, 20 μL of WST-1 {4-[3-(4-Iodophenyl)-2-(4-nitrophenyl)-2H-5-tetrazolio]-1,3-benzene disulfonate} reagent mixture (manufactured by Roche Diagnostic Corp.) diluted to twice its original amount by culture medium was added to each well, and culturing was performed in the 5% carbon dioxide incubator at 37° C. for 1 hour. Using a microplate spectrophotometer (Model 550; manufactured by Bio-Rad), the absorbance of each well was measured at 450 nm and 655 nm. The cell growth inhibitory activity was expressed as 50% growth inhibitory concentration (GI50). The method for calculating the GI50 value is as follows. A value obtained by subtracting the absorbance at 655 nm from the absorbance at 450 nm (absorbance difference) was calculated for each well. The absorbance difference obtained for cells not treated with a test compound was designated as 100%, which was compared with the absorbance difference obtained for cells treated with each compound at various test concentrations, and thus the compound concentration at which cell growth was inhibited by 50% was calculated to determine the GI50 value.
In general terms: Tetrazolium dyes change colour on reduction, which living cells bring about.
Turning to `O=C(Nc1ccccc1)c1c(O)cc(O)cc1COCc1ccccc1` [Compound 1, 2-(Benzyloxymethyl)-4,6-dihydroxy-N-phenylbenzamide], the GI50 is at most 50 µM.

As to `O=C(NCc1ccccc1)c1c(O)cc(O)cc1COCc1ccccc1` [Compound 2, N-benzyl-2-(benzyloxymethyl)-4,6-dihydroxybenzamide], the GI50 was at most 50 µM.

As for `O=C(NCCc1ccccc1)c1c(O)cc(O)cc1COCc1ccccc1` [Compound 3, 2-(Benzyloxymethyl)-4,6-dihydroxy-N-phenethylbenzamide], the GI50 was at most 50 µM.

In the case of `O=C(NCc1ccccn1)c1c(O)cc(O)c(Cl)c1COCc1ccccc1` [Compound 9, 2-(Benzyloxymethyl)-3-chloro-4,6-dihydroxy-N-(pyridin-2-ylmethyl)benzamide], the GI50 is at most 50 µM.

On to `COC(=O)c1c(O)cc(O)c(Br)c1COCc1ccccc1` [Compound 10, 2-(Benzyloxymethyl)-3-bromo-4,6-dihydroxybenzoic acid methyl ester], for which the GI50 was at most 50 µM.

Take `CCc1c(O)cc(O)c(C(=O)N2CCOCC2)c1CC(=O)OC` [Compound 14, [2-Ethyl-3,5-dihydroxy-6-(morpholinocarbonyl)phenyl]acetic acid methyl ester]: the GI50 was at most 50 µM.

For `CCCN(C)C(=O)c1c(O)cc(O)c(CC)c1CC(=O)OC` [Compound 15, [2-Ethyl-3,5-dihydroxy-6-(N-methyl-N-propylcarbamoyl)phenyl]acetic acid methyl ester], the GI50 is at most 50 µM.

As to `CCc1c(O)cc(O)c(C(=O)N(C)CCOC)c1CC(=O)OC` [Compound 16, {2-Ethyl-3,5-dihydroxy-6-[N-(2-methoxyethyl)-N-methylcarbamoyl]phenyl}acetic acid methyl ester], the GI50 is at most 50 µM.

Take `CCc1c(O)cc(O)c(C(=O)N2CCCCC2)c1CC(=O)OC` [Compound 17, [2-Ethyl-3,5-dihydroxy-6-(piperidinocarbonyl)phenyl]acetic acid methyl ester]: the GI50 was at most 50 µM.

Take `CCc1c(O)cc(O)c(C(=O)N2CCN(C)CC2)c1CC(=O)OC` [Compound 18, [2-Ethyl-3,5-dihydroxy-6-(4-methylpiperazin-1-ylcarbonyl)phenyl]acetic acid methyl ester]: the GI50 is at most 50 µM.

Regarding `CCc1c(O)cc(O)c(C(=O)NCc2ccccc2)c1CCO` [Compound 19, N-benzyl-3-ethyl-4,6-dihydroxy-2-(2-hydroxyethyl)benzamide], the GI50 was at most 50 µM.

As for `CCc1c(O)cc(O)c(C(=O)OC)c1CC(=O)OC` [Compound 23, 3-Ethyl-4,6-dihydroxy-2-(methoxycarbonylmethyl)benzoic acid methyl ester], the GI50 is at most 50 µM.
